≈ marks a conversion by molar mass, not a printed value.
Legend:
dengue virus type 2 [1] = assay: Antiviral activity against DENV2 infected in BHK-21 cells assessed as viral replication after 24 to 48 hrs by luciferase reporter gene assay; type: functional, organism-based
Dengue virus = assay: Antiviral activity against dengue virus; type: functional, organism-based
dengue virus type 2 [2] = assay: Antiviral activity against DENV2 infected in human Huh-7 cells; type: functional, organism-based
dengue virus type 2 [3] = assay: Antiviral activity against DENV2 infected in BHK-21 cells by MTTR assay; type: functional, organism-based
dengue virus type 2 [4] = assay: Antiviral activity against DENV2; type: functional, organism-based
dengue virus type 2 [5] = assay: Antiviral activity against DENV2 New Guinea C infected in HEK293 cells assessed as reduction in viral infection after 48 hrs by focus forming assay; type: functional, organism-based; settings: HEK293, 48 h
Genome polyprotein [6] = target: T1, Genome polyprotein (dengue virus type 2, UniProt P29990); assay: Inhibition of DENV2 NS2B-NS3 serine protease expressed using Benzoyl-Nle-Lys-Arg-Arg-AMC as substrate measured preincubated for 3 mins followed by substrate addition by fluorescence assay
dengue virus type 2 [7] = assay: Antiviral activity against DENV2 infected in BHK-21 cells assessed as viral replication; type: functional, organism-based
dengue virus type 2 [8] = assay: Antiviral activity against DENV2 infected in HEK293 cells assessed as reduction in plaque formation; type: functional, organism-based
dengue virus type 2 [9] = assay: Antiviral activity against DENV2 New Guinea C infected in human Huh7 cells assessed as reduction in viral titer after 3 to 4 days by MTT assay; type: functional, organism-based; settings: Huh-7
Genome polyprotein [10] = target: T1, Genome polyprotein; assay: Inhibition of His-tagged DENV2 NS2B-NS3 serine protease expressed in Escherichia coli BL21 using Boc-Gly-Arg-Arg-7-amino-4-methylcoumarin as substrate measured after 10 mins by fluorometric assay
dengue virus type 1 = assay: Antiviral activity against DENV1 infected in African green monkey Vero cells assessed as reduction in viral replication after 4 days by qRT-PCR analysis; type: functional, organism-based; settings: 96 h
dengue virus type 2 [11] = assay: Antiviral activity against DENV2 infected in BHK-21 cells assessed as viral titer by plaque assay; type: functional, organism-based
[12] = target: Genome polyprotein (dengue virus type 2) (UniProt P29990); assay: Inhibition of DENV2 NS2B-NS3 serine protease
Nonstructural protein 5 [13] = target: T2, Nonstructural protein 5 (Dengue virus, UniProt V5TFZ2); assay: Inhibition of His-tagged DENV2 NS5 RNA dependent RNA polymerase; design: species or system dengue virus type 2
T2 sequence (V5TFZ2 whole entry): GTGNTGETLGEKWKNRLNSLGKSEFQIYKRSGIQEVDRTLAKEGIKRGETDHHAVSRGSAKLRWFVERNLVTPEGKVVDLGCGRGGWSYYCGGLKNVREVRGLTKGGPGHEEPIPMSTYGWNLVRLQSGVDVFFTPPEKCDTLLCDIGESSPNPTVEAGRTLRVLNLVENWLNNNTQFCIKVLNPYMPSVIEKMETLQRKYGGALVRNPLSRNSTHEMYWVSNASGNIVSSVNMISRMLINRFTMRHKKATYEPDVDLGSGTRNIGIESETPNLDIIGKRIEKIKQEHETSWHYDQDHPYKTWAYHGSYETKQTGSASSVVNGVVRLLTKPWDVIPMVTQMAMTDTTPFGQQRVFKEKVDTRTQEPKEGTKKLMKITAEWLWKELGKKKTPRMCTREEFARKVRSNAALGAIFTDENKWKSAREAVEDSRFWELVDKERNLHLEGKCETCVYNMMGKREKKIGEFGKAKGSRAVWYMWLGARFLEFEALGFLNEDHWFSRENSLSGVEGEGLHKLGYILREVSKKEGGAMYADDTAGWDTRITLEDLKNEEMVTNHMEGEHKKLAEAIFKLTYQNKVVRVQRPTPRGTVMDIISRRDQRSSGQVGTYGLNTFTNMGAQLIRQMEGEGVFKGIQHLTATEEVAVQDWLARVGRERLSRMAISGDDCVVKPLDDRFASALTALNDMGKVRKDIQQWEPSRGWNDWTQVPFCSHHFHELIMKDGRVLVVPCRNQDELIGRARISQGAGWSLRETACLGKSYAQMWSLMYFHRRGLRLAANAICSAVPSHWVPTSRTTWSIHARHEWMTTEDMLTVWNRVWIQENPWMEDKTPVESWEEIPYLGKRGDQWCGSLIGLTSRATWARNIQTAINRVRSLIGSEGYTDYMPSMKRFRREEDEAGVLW

Nonstructural protein 5 [14] = target: T2, Nonstructural protein 5; assay: Inhibition of His-tagged DENV2 NS5 RNA dependent RNA polymerase expressed in baculovirus infected sf9 cells; design: species or system dengue virus type 2
dengue virus type 2 [15] = assay: Antiviral activity against DENV2 infected in BHK cells assessed as reduction in viral yield after 24 ro 48 hrs by luciferase reporter gene assay; type: functional, organism-based

## CCN(CC)Cc1cc(Nc2ccnc3cc(Cl)ccc23)ccc1O [AMODIAQUINE]
Dengue virus type 2 [1]
  IC50: 1.08 µM
  IC90: 2.69 µM

## CC[C@@H](c1cc(OC)c(OC)cc1OC)[C@H](C)[C@@H](/C(C)=C/c1cc(OC)c(OC)cc1OC)c1cc(OC)c(OC)cc1OC
Dengue virus
  EC50: 3.9 µM

## O=c1c2cc(O)c(O)cc2oc2cc(O)c([C@@H]3O[C@H](CO)[C@@H](O)[C@H](O)[C@H]3O/C=C/c3ccc(O)c(O)c3)c(O)c12
Dengue virus type 2 [2]
  EC50: 4.1 µg/mL (≈ 7.37 µM)

## CC1(C)O[C@H]1[C@H]1C[C@@H]([C@H]2CC[C@]3(C)C4=CC[C@H]5C(C)(C)C(=O)CC[C@]5(C)[C@H]4CC[C@@]23C)[C@H](O)O1
Dengue virus type 2 [3]
  EC50: 12 µM

## C=C1CC/C=C(\C)CC[C@@H]2[C@@H]1CC2(C)C [BETA-CARYOPHYLLENE]
Dengue virus type 2 [4]
  IC50: 22 µM

## Nc1c(C(=O)Nc2nc(-c3ccccc3)cs2)sc2nc3c(cc12)CN(c1ccccc1)CC3
Dengue virus type 2 [5]
  IC50: 0.025 µM

## Cc1ccc(C(=O)c2cc(O)c(O)c([N+](=O)[O-])c2)cc1 [TOLCAPONE]
Genome polyprotein [6]
  IC50: 0.64 to 1.15 µM
Dengue virus type 2 [7]
  EC50: 2.29 µM

## CC[C@H]1C[C@H]2C[N@]3CCc4c([nH]c5ccc(OC)cc45)[C@](C(=O)OC)(C2)[C@H]13
Dengue virus type 2 [4]
  EC50: 2.6 to 10.2 µM

## Cc1cnc(NC(=O)c2cc(S(=O)(=O)N(C)C)ccc2N2CCCC2)s1
Dengue virus type 2 [8]
  EC50: 0.85 µM

## COc1cc(/C(C#N)=C/c2cc3ccccc3s2)cc(OC)c1OC
Dengue virus type 2 [9]
  EC50: 7.22 µM

## CC(C)=CCC/C(C)=C/C=O [CITRAL]
Dengue virus type 2 [4]
  IC50: 31 µM

## O=C(Nc1cccs1)c1ccccc1Sc1ccc([N+](=O)[O-])cc1
Genome polyprotein [10]
  IC50: 98 µM
Dengue virus type 1
  EC50: 3.5 µM

## C#Cc1cccc(Nc2ncnc3cc(OCCOC)c(OCCOC)cc23)c1 [ERLOTINIB]
Dengue virus type 2 [11]
  EC50: 4.07 µM

## O=c1c2cc(O)c(O)cc2oc2cc(O)c([C@@H]3O[C@H](CO)[C@@H](O)[C@H](O)[C@H]3O/C=C/c3ccccc3)c(O)c12
Dengue virus type 2 [2]
  EC50: 3.5 µg/mL (≈ 6.67 µM)

## CCCCC1C(C(=O)CC)C(c2ccccc2)CCN1C(=O)OC(C)(C)C (configuration not stated)
Dengue virus type 2 [4]
  EC50: 3.2 µM
[12]
  INH: 214 µM

## Cc1c(O)cccc1C(=O)N[C@@H](CSc1ccccc1)[C@H](O)CN1C[C@H]2CCCC[C@H]2C[C@H]1C(=O)NC(C)(C)C [NELFINAVIR]
Dengue virus type 2 [4]
  IC50: 3.5 µM

## COc1cc(/C(C#N)=C/c2cc3ccccc3[nH]2)cc(OC)c1OC
Dengue virus type 2 [9]
  EC50: 8.12 µM

## CCCCC1C(C(=O)N(C)OC)C(c2ccccc2)CCN1C(=O)OC(C)(C)C (configuration not stated)
Dengue virus type 2 [4]
  EC50: 2.4 µM
[12]
  INH: 257 µM

## O=C(O)c1cc2sc(NC(=O)c3ccccc3Sc3ccc(C(F)(F)F)cc3)nc2cc1O
Genome polyprotein [10]
  IC50: 66 µM

## CCOC(=O)c1cnn(-c2ccccc2)c1N(S(=O)(=O)c1ccc([N+](=O)[O-])cc1)S(=O)(=O)c1ccc([N+](=O)[O-])cc1
Dengue virus type 2 [4]
  EC50: 5.7 µM
Nonstructural protein 5 [13]
  EC50: 4.9 µM
Nonstructural protein 5 [14]
  EC50: 0.013 µM

## CCN(CC)CCNC(=O)c1c(C)[nH]c(/C=C2\C(=O)Nc3ccc(F)cc32)c1C [SUNITINIB]
Dengue virus type 2 [11]
  EC50: 1.96 µM

## CCN(CC)CCCC(C)Nc1c2ccc(Cl)cc2nc2ccc(OC)cc12 (configuration not stated) [QUINACRINE]
Dengue virus type 2 [15]
  EC50: 5.3 µM

## CC(=O)O[C@@H]1C(=O)C=C2CCN3Cc4cc5c(cc4[C@H]1[C@@H]23)OCO5
Dengue virus
  EC50: 0.4 to 1.8 µM

## CC(C)C[C@@H]1NC(=O)[C@@H]2CCCN2C1=O
Dengue virus
  EC50: 11.2 to 21.2 µM

## O=C1N[C@@H](Cc2ccccc2)C(=O)N2C[C@H](O)C[C@@H]12
Dengue virus
  EC50: 11.2 to 21.2 µM
